How the values were obtained:
[1] = test system: Cy5-hTERT-FL (DNA, G4) GGGGAGGGGCTGGGAGGGCCCGGAGGGGGCTGGGCCGGGGACCCGGGAGGGGTCGGGACGGGGCGGGG; assay: microscale thermophoresis; conditions: 25 mM KCl, pH 7.2, 1.5% DMSO
[2] = test system: Ctrl HP (FRET-labelled) (DNA, hairpin) GCATGCTTTTGCATGC; assay: fluorescence thermal shift assay; conditions: 100 μM compound, 0.5 μM DNA, phosphate buffer
[3] = test system: PQS23 (FRET-labelled) (DNA, G4) AGGGGGCTGGGCCGGGGACCCGGGAGGGGTCGGGACGGGGCGGGG; assay: fluorescence thermal shift assay; conditions: 100 μM compound, 0.5 μM DNA, phosphate buffer
[4] = test system: PQS12 (FRET-labelled) (DNA, G4) AGGGGAGGGGCTGGGAGGGCCCGGAGGGGGCTGGGCCGGGGACCCGGGA; assay: fluorescence thermal shift assay; conditions: 100 mM K+; 100 μM compound, 0.5 μM DNA, phosphate buffer
[5] = test system: PQS23 (DNA, G4) AGGGGGCTGGGCCGGGGACCCGGGAGGGGTCGGGACGGGGCGGGG; assay: competition dialysis; conditions: 185 mM K+; phosphate buffer, RT, 5 μM compound, 75 μM DNA as tetrads
[6] = test system: TERT-FL (hTERT-FL) (DNA, G4) GGGGAGGGGCTGGGAGGGCCCGGAGGGGGCTGGGCCGGGGACCCGGGAGGGGTCGGGACGGGGCGGGG; assay: CD melting, 260 nm; conditions: 20 mM KCl; 25 μM compound, 1.1 μM DNA
[7] = test system: AT duplex (DNA, hairpin) ATATATATATCCCCATATATATAT; assay: competition dialysis; conditions: 185 mM K+, phosphate buffer, RT, 5 μM compound, 75 μM DNA as base pairs, per base pair
[8] = test system: GC Triplex (DNA, triplex) CCCCCCCCTTTTGGGGGGGGTTTTCCCCCCCC; assay: competition dialysis; conditions: 185 mM K+, phosphate buffer, RT, 5 μM compound, 75 μM DNA as triplets, per triplet, per base
[9] = test system: TERT-FL (hTERT-FL) (DNA, G4) GGGGAGGGGCTGGGAGGGCCCGGAGGGGGCTGGGCCGGGGACCCGGGAGGGGTCGGGACGGGGCGGGG; assay: competition dialysis; conditions: 185 mM K+, phosphate buffer, RT, 5 μM compound, 75 μM DNA as tetrads, per tetrad, per base
[10] = test system: PQS12 (DNA, G4) AGGGGAGGGGCTGGGAGGGCCCGGAGGGGGCTGGGCCGGGGACCCGGGA; assay: competition dialysis; conditions: 185 mM K+; phosphate buffer, RT, 5 μM compound, 75 μM DNA as tetrads
[11] = test system: H-Tel G4 (DNA, G4) AGGGTTAGGGTTAGGGTTAGGG; assay: competition dialysis; conditions: 185 mM K+, phosphate buffer, RT, 5 μM compound, 75 μM DNA as tetrads, per tetrad, per base
[12] = test system: GC duplex (DNA, hairpin) GCGCGCGCGCTTTTGCGCGCGCGC; assay: competition dialysis; conditions: 185 mM K+, phosphate buffer, RT, 5 μM compound, 75 μM DNA as base pairs, per base pair
[13] = test system: c-Myc G4 (DNA, G4) TGAGGGTGGGTAGGGTGGGTAA; assay: competition dialysis; conditions: 185 mM K+, phosphate buffer, RT, 5 μM compound, 75 μM DNA as tetrads, per tetrad, per base

## NC(N)=NCCCS(=O)(=O)Nc1ccc(Nc2c3ccccc3nc3cc([N+](=O)[O-])ccc23)cc1
[1]; BPEK buffer, 20 nM DNA, without calf thymus DNA, apparent
  apparent Kd: 2 µM

## Cc1nc(NCCc2ccccc2)c2ccccc2n1
[1]; BPEK buffer, 20 nM DNA
  Kd: 13 [7, 24] μM

## CN(CCc1ccccc1)c1nc(-c2ccc(F)cc2)nc2ccccc12
[1]; BPEK buffer, up to 200 μM, no reliable fit
  binding: no

## CCCC(CCC)C1CCN(c2nc(CCN)nc3ccccc23)CC1
[1]; BPEK buffer, 20 nM DNA
  Kd: 17 [7, 45] μM
[2]; K+ (concentration not stated)
  binding: no
[3]; K+ (concentration not stated)
  binding: yes

## CCc1nc(N(CCC(=O)NC(C)C)CCc2ccccc2)c2ccccc2n1
[1]; BPEK buffer, 20 nM DNA
  Kd: 5 [1, 23] μM

## Cc1cnccc1NCCNC(=O)c1cccc(CC2CCNCC2)c1
[2]; 100 mM K+
  binding: no
[4]
  binding: no
[3]; 100 mM K+
  binding: yes

## CN(CCc1ccccc1)c1nc(CCN)nc2ccccc12
[1]; BPEK buffer, 20 nM DNA
  Kd: 8 [4, 19] μM
[5]
  binding: yes
[6]
  binding: yes
[7]
  apparent Kd: > 140 µM
[8]
  apparent Kd: > 140 µM
[9]
  apparent Kd: 24 µM
[10]
  binding: yes
[11]
  apparent Kd: > 140 µM
[12]
  apparent Kd: > 140 µM
[13]
  apparent Kd: > 140 µM

## CCOc1ccccc1CCNc1nc(CCN)nc2ccccc12
[1]; BPEK buffer (8 mM sodium phosphate, 1 mM EDTA), 20 nM DNA
  Kd: 3 µM
[2]; K+ (concentration not stated)
  binding: no
[3]; K+ (concentration not stated)
  binding: yes

## COCCN1CC2CCC1CN(c1nc(N(C)C)nc(C)c1C)C2 (stereo not drawn)
[6]
  binding: yes
[7]
  apparent Kd: > 140 µM
[8]
  apparent Kd: > 140 µM
[9]
  apparent Kd: 22 µM
[11]
  apparent Kd: > 140 µM
[12]
  apparent Kd: > 140 µM
[13]
  apparent Kd: > 140 µM
